In patent EP0820989A1, “IMIDAZOLE DERIVATIVES AND MEDICINAL COMPOSITION THEREOF” (YAMANOUCHI PHARMACEUTICAL CO., LTD., priority 1995, dated 1996) one finds IC50 data, which are given here for three molecules.

This test has as its target T1, rat steroid 17-20 lyase (Rattus norvegicus, UniProt P11715).
T1 construct: Testes were excised from ten-week-old male Wistar rats, homogenized and then centrifuged to give microsomes; from tissue; host or cells: testis microsomes of ten-week-old male Wistar rats
T1 sequence (P11715 1-507): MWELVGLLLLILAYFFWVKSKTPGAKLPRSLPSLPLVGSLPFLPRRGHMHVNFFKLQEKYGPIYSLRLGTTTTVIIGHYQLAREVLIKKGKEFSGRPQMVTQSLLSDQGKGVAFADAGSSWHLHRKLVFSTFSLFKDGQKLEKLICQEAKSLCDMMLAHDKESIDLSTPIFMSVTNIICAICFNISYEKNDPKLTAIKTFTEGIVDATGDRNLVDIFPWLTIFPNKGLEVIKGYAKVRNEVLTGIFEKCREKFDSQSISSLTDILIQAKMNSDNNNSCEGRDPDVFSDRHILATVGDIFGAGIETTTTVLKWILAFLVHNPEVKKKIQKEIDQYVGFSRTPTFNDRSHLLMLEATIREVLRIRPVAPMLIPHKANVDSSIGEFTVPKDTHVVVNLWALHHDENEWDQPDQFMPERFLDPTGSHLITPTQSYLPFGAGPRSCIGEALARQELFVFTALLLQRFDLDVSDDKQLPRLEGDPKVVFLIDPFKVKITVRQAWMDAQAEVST
In words: Measurement of inhibition of rat steroid 17-20 lyase activity [in vitro]. Type of test: biochemical. How it is done:
(1) Measurement of inhibition of rat steroid 17-20 lyase activity [in vitro]
This was carried out in accordance with the method described in J. Steroid Biochem., Vol.33, No.6, 1191-1195 (1989).
Testes were excised from ten-week-old male Wistar rats, homogenized and then centrifuged to give microsomes. The microsomal protein (50 µg), 1 µM of [1,2-^3H]-17α-hydroxyprogesterone (5.55 × 10^5 dpm) and a test compound were dissolved in 100 µl of 50 mM phosphate buffer (pH 7.4), NADPH solution was added, and then the mixture was incubated at 37°C for 60 minutes. Then, 400 µl of a mixed solution of methanol and tetrahydrofuran (2:3) was added, and the mixture was subjected to centrifugation, and then radioactivities of the substrate and the formed product (androstenedione and testosterone) in the resulting supernatant were measured by a high performance liquid chromatography (HPLC) equipped with a radioisotope detector to examine the activity of the test compound to inhibit steroid 17-20 lyase.

What is called IC50 is the point on the concentration scale where inhibition reaches its midpoint.

Read-outs that look alike come from different tables or passages of the source.

Regarding `Fc1ccc2c(c1)[nH]c1cc(Cc3cccnc3)ccc12` [Control compound, reference compound], the IC50 (rat testis microsomes (50 µg protein), 1 µM [1,2-3H]-17α-hydroxyprogesterone, NADPH, pH 7.4, 37°C, 60 minutes, HPLC, read-out: Inhibition of steroid 17-20 lyase activity IC50) stood at 12.7 nM.

`CC(c1ccc2c(c1)[nH]c1ccccc12)c1c[nH]cn1` (stereo not drawn) [Example 1e, 2-[1-(1H-Imidazol-4-yl)ethyl]-9H-carbazole]: the IC50 came out at 3.9 nM.

`CCCn1cncc1Cc1ccc2c(c1)[nH]c1ccccc12` [Example 13, 2-[(1-Propyl-1H-imidazol-5-yl)methyl]-9H-carbazole] gave a half-maximal inhibitory concentration (IC50) of 2.5 nM.
